# According to PubChem BioAssay AID463199 (Broad Institute, 2010):
# The source made the active and inactive calls.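 The calls were made as follows: active = AC50, the dose giving half-maximal effect, exceeds a fixed cutoff for a compound that rescues yeast growth under heat; inactive = the rest, inconclusive results apart.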
# System: S. cerevisiae Burl-1 ts mutant growth, BacTiter-Glo, 38.5C 24 h
# Experiment: growth induction of Burl-1 ts yeast mutant, dose response, counter-screen for SUMOylation pathway inhibitor project, whole organism, S. cerevisiae, luminescence (AID 463199)
row,SMILES,AC50
1,CCN1C(=NCc2cccc(Cl)c2)N[C@@H](c2cccc(F)c2)C(C(=O)OC)=C1C,> 42 µM (inactive)
2,c1ccc2c(c1)[nH]c1c(N3CCN(C4CCCCC4)CC3)ncnc12,39.8 µM
3,CCOc1ccc(S(=O)(=O)N2CCN(C(=O)CN3C(=O)NC4(CCCC4)C3=O)CC2)cc1,> 42 µM (inactive)
4,CCC1(CC)NC(=O)N(CC(=O)N2N=C(c3ccc(Cl)cc3)CC2c2ccco2)C1=O (stereo not given),> 42 µM (inactive)
5,CCCCNS(=O)(=O)c1ccc2c(c1)oc(=O)n2CC(=O)OCC,> 42 µM (inactive)
6,O=c1[nH]nc(Cc2ccc(-c3ccccc3Cl)o2)c2ccccc12,> 42 µM (inactive)
7,CCOC(=O)c1cnc2oc3ccccc3n2c1=O,> 42 µM (inactive)
8,CC(=O)N1N=C(N)SC12CCCC2,> 42 µM (inactive)
9,COC(=O)c1ccc(Cl)c(NC(=O)CN(c2ccc(OC)c(OC)c2)S(C)(=O)=O)c1,> 42 µM (inactive)
10,N#Cc1cc2c(nc1SC1CCCCC1O)CCCC2 (stereo not given),> 42 µM (inactive)
11,COCCCn1c2nc3ccccc3nc2c2c(=O)n(Cc3ccc(Cl)cc3)cnc21,> 42 µM (inactive)
12,CCN(CC)c1ccc(C=C2C(=O)OC(c3ccccc3)OC2=O)cc1 (stereo not given),> 42 µM (inactive)
13,Cc1c(C(=O)Nc2cccc(F)c2)cnn1-c1ccccc1,> 42 µM (inactive)
14,O=S(=O)(Nn1c(O)c(C=C2N=c3ccccc3=N2)sc1=S)c1ccccc1,> 42 µM (inactive)
15,O=C(CCC1CCCN(C(=O)Cc2cccc(F)c2)C1)N1CCN(c2ccccn2)CC1 (stereo not given),> 42 µM (inactive)
16,Cc1ccc(S(=O)(=O)/N=C(/Nc2ccc([N+](=O)[O-])cc2[N+](=O)[O-])c2ccccc2)cc1,> 42 µM (inactive)
17,Cc1cc(C)cc(C(=O)NC(CC(N)=O)c2ccc(N3CCC(N4CCCCC4)CC3)c([N+](=O)[O-])c2)c1 (stereo not given),> 42 µM (inactive)
18,O=C(O)CC(NC(=O)OCc1ccccc1)c1ccc(Br)cc1 (stereo not given),> 42 µM (inactive)
19,C=CCNC(=O)c1cc(-c2cccnc2)nc2ccccc12,> 42 µM (inactive)
20,CN(C)/C(CN1CCCCC1)=C1\N=C(c2ccccc2)OC1=O,> 42 µM (inactive)
21,COc1ccc(C(=O)CC(=O)C(=O)Nc2ccc(C)c(C)c2)cc1,> 42 µM (inactive)
22,CCOc1ncccc1-c1nc(-c2cccs2)no1,> 42 µM (inactive)
23,O=C(Nc1cccc(Cl)c1)OCc1cncs1,> 42 µM (inactive)
24,Cc1cc(C)cc(C(=O)N2CCC3(CC2)NCCc2[nH]cnc23)c1,> 42 µM (inactive)
25,COC(=O)C1=C(C)NC(C)=C([N+](=O)[O-])C1c1ccccc1C(F)(F)F (stereo not given),> 42 µM (inactive)

row,SMILES,AC50
1,Cc1nc2c(-c3ccc(F)cc3)cnn2c2c1CCC2,> 42 µM (inactive)
2,CN(C)c1ccc(/C=N\Nc2ccccn2)cc1,> 42 µM (inactive)
3,COC(=O)c1ccc(N2C(=O)CC(NCc3ccccc3)C2=O)cc1 (stereo not given),> 42 µM (inactive)
4,C/C(=N\NC(=O)Cc1csc(N2CCOCC2)n1)c1ccccc1,> 42 µM (inactive)
5,CN(C)C(=O)c1c2c(nc3ccccc13)CCCC2,> 42 µM (inactive)
6,Cn1c(=O)nc2n(Cc3ccccc3)c3ccccc3cc-2c1=O,> 42 µM (inactive)
7,COc1ccc(C(=O)OCC(=O)c2ccccc2)cc1S(=O)(=O)N1CCOCC1,> 42 µM (inactive)
8,COC(=O)C(NC(C)=O)(Nc1nc2ccc(S(C)(=O)=O)cc2s1)C(F)(F)F (stereo not given),> 42 µM (inactive)
9,CS(=O)(=O)Nc1ccccc1C(=O)NCCSCc1ccccc1,> 42 µM (inactive)
10,CCOC(=O)C1=Nc2ccccc2C1=[N+]=[N-],> 42 µM (inactive)
11,Cc1cc(Oc2cc(NN3CCCCC3)c([N+](=O)[O-])cc2[N+](=O)[O-])ccc1[N+](=O)[O-],> 42 µM (inactive)
12,COCCn1c(=NC(=O)c2ccc(S(=O)(=O)N3CCOCC3)cc2)sc2cc(S(N)(=O)=O)ccc21,> 42 µM (inactive)
13,CCOC(=O)C1(Cc2cccc(OC)c2)CCCN(S(=O)(=O)c2cccnc2)C1 (stereo not given),> 42 µM (inactive)
14,CCCC(=O)NC(C)c1nc2ccccc2[nH]1 (stereo not given),> 42 µM (inactive)
15,CC1=Nc2ccccc2/C1=C\c1nc(-c2ccccc2)oc1O,> 42 µM (inactive)
16,Cc1ccc(/C=C/C(=O)OCC(=O)N(CC(C)C)c2c(N)n(Cc3ccccc3)c(=O)[nH]c2=O)o1,> 21 µM (inactive)
17,Nc1ccnc(=O)[nH]1,> 42 µM (inactive)
18,CCOC(=O)c1sc(NC(=O)CSc2n[nH]c(-c3ccc(Cl)cc3Cl)n2)c(C#N)c1C,> 42 µM (inactive)
19,COc1ccc(S(=O)(=O)NCC(=O)N(CC(=O)NCc2ccco2)Cc2ccccc2)cc1,> 42 µM (inactive)
20,COC(=O)c1cc(Cl)c(NC(=O)C(C)C)cc1OC,> 42 µM (inactive)
21,Cc1nn(Cc2ccc(C(=O)Nc3ccccc3C(F)(F)F)o2)c(C)c1Br,> 42 µM (inactive)
22,Cc1ccc(C(C(=O)NC2CCCCC2)N(CCC(C)C)C(=O)CNC(=O)c2ccco2)o1 (stereo not given),> 42 µM (inactive)
23,O=Cc1ccc(Oc2cccc(C(F)(F)F)c2)nc1,> 42 µM (inactive)
24,CC1(C)NC(=O)N(CCCOc2ccccc2Br)C1=O,> 42 µM (inactive)
25,CCOC(=O)N1CCN(C(=O)c2ccccc2-c2ccccc2)CC1,> 42 µM (inactive)

row,SMILES,AC50
1,CC(=O)Cc1nsc(Nc2cccc(C)c2)n1,> 42 µM (inactive)
2,N#C/C(=C\Nc1ccc2c(c1)OCCO2)c1nc2ccccc2[nH]1,> 42 µM (inactive)
3,O=C(CCC(=O)Nc1ccc(F)cc1)N/N=C/c1cccs1,> 42 µM (inactive)
4,CCCn1c(N)cc(=O)n(CCC)c1=O,> 42 µM (inactive)
5,O=C(Nc1ccccc1F)C1CCN(C(=O)Cc2ccccc2)CC1,> 42 µM (inactive)
6,CNS(=O)(=O)c1cccc(C(=O)NCC2(N3CCCCC3)CCCCC2)c1,> 42 µM (inactive)
7,CC1(C)C=C(c2ccc(O)cc2)CC(C)(C)N1,> 42 µM (inactive)
8,COc1cc(C(=O)Nc2sc3c(c2C(=O)O)CCC(C)C3)cc(OC)c1OC (stereo not given),> 42 µM (inactive)
9,CCOC(=O)/C(C#N)=C\c1ccc(CC)s1,> 42 µM (inactive)
10,COc1ccccc1NC(=O)CN(c1ccc(C)cc1)S(=O)(=O)c1c(C)n[nH]c1C,> 42 µM (inactive)
11,Cc1cc(C)n(C(=O)CNC(=O)c2ccc3c(c2)OCCO3)n1,> 42 µM (inactive)
12,CN=C1SC(CC(=O)Nc2sc3c(c2C#N)CCCC3)C(=O)N1C (stereo not given),> 42 µM (inactive)
13,Cc1sc(-n2c(C)cc(C=C3C(=O)NC(=O)NC3=O)c2C)c(C#N)c1C,> 42 µM (inactive)
14,c1ccc(-c2cc3cc4c(cc3cn2)OCO4)cc1,> 42 µM (inactive)
15,O=C(CSc1nnc(CNC(=O)c2ccccc2F)o1)NCCc1ccccc1,> 42 µM (inactive)
16,CCOC(C(=O)OCCCN(CC)CC)(c1ccccc1)c1ccccc1,> 42 µM (inactive)
17,CCc1ccccc1NC(=O)N[C@@H](C)C(=O)OC,> 42 µM (inactive)
18,COc1ccc(NC(=O)C2CCCN(C(=O)Nc3cccc(OC)c3)C2)cc1 (stereo not given),> 42 µM (inactive)
19,COc1ccccc1NC(=O)Nc1ccc(Cl)c(S(=O)(=O)Nc2ccccc2OC)c1,> 42 µM (inactive)
20,CCCCC(=O)NC(=S)Nc1cccc(C(=O)O)c1,> 42 µM (inactive)
21,CCCCNC(=O)c1ccccc1NC(=O)C1=C(C)OCCS1,11.3 µM
22,CCOc1ccc(-c2nc3n(c(=O)c2C#N)CCS3)cc1,40.7 µM
23,CCOc1ccc(N2CC(C(=O)OC)CC2=O)cc1 (stereo not given),> 42 µM (inactive)
24,COc1cccc(C2CC(c3cccc(NS(C)(=O)=O)c3)=NN2C(=O)c2ccccc2)c1OC (stereo not given),> 42 µM (inactive)
25,Cc1cc(C)nc(-n2nc(C)cc2NC(=O)CNCc2ccccc2)n1,> 42 µM (inactive)

row,SMILES,AC50
1,Cc1ccc(C(=O)NNc2ncnc3c2cnn3C)cc1,> 42 µM (inactive)
2,Cc1c(C(=O)NC(=S)Nc2ccccc2N2CCCC2)cccc1[N+](=O)[O-],> 42 µM (inactive)
3,O=C(c1cc2ccccc2o1)N1CCCC1,> 42 µM (inactive)
4,COC(=O)Nc1ccc(S(=O)(=O)N2CCCC(C(=O)NC3CCS(=O)(=O)C3)C2)cc1 (stereo not given),> 42 µM (inactive)
5,COc1ccc2[nH]cc(CCNS(=O)(=O)c3ccc(C)cc3)c2c1,> 42 µM (inactive)
6,Cc1cc(Br)ccc1NC(=O)c1cnc(N2CCN(c3ccccn3)CC2)c2ccccc12,> 42 µM (inactive)
7,O=C(CSc1nnc(-c2cccs2)n1-c1ccccc1)c1ccc2c(c1)OCCO2,> 42 µM (inactive)
8,CC(C)NC(=O)c1ccccc1-c1ccccc1,> 42 µM (inactive)
9,CCCCn1c(/C=N/Nc2nc3ccccc3[nH]2)nc2ccccc21,> 42 µM (inactive)
10,Cc1ccc(S(=O)(=O)N2c3ccc(S(N)(=O)=O)cc3CC2C)cc1 (stereo not given),> 42 µM (inactive)
11,CCn1nc(C(=O)OCc2cccc(S(=O)(=O)N(C)C)c2)c2ccccc2c1=O,> 42 µM (inactive)
12,CCCNC(=O)Cn1nc(C)n2c(cc3cc(F)ccc32)c1=O,> 42 µM (inactive)
13,CCNc1ccccc(C(=O)/C=C/c2ccc3c(c2)OCO3)c1=O,> 42 µM (inactive)
14,COc1ccc(C(C)=O)cc1CN(c1ccccc1OC)S(=O)(=O)c1cccs1,> 42 µM (inactive)
15,O=C(CSc1cccc2cccnc12)Nc1cc(C(=O)O)cc(C(=O)O)c1,> 42 µM (inactive)
16,CSc1cccc(N2C(=O)C3CCCN3C2=S)c1 (stereo not given),> 42 µM (inactive)
17,CS(=O)(=O)N(CC(=O)N1CCCC1)c1cccc(Cl)c1Cl,> 42 µM (inactive)
18,C[C@]12CC[C@H]3C(=CCc4cc(O)ccc43)[C@@H]1CCC2=O,> 42 µM (inactive)
19,CCOc1ccc(S(=O)(=O)N2CCC(C(=O)N3CCN(c4ccccc4)CC3)CC2)cc1,> 42 µM (inactive)
20,C=CCn1c(-c2ccc(OC)cc2)nc2ccccc21,> 42 µM (inactive)
21,COc1ccc(OCC(=O)O/N=C(\N)Cc2ccc(Cl)cc2)cc1,> 42 µM (inactive)
22,O=C(O)c1ccc(COc2c(F)c(F)cc(F)c2F)cc1,> 42 µM (inactive)
23,CCCCCCC(C)n1[nH]c(=O)c2c(C)cc(=O)[nH]c21 (stereo not given),> 42 µM (inactive)
24,COC(=O)c1cc(N=Nc2c(C)[nH]c3ccccc23)cc(C(=O)OC)c1,> 42 µM (inactive)
25,COc1ccc(/C=N\Nc2ccc([N+](=O)[O-])cc2)c(C(=O)O)c1OC,> 42 µM (inactive)
